Literature values, collected in patent US20140080711A1, “SUSPENSION OF PARTICLES COMPRISING CYCLOPROPENE COMPLEXES DISPERSED IN A RESIN MATRIX” (AgroFresh Inc., priority 2012, published 2014).

Tested on: ethylene receptors

CC1=CC1 [Sample 1-MCP, 1-methylcyclopropene]
affinity for the receptor relative to that of ethylene: approximately 10 times
